# In patent US5340800A, “Peptide medicaments for the treatment of disease” (priority 1992, dated 1994):
# No end group written: not given here.
# Tested on: polymorphonuclear leukocyte migration
# Assay: Chemotaxis of polymorphonuclear leukocytes (trans-well, zymosan-activated human serum)
# Assay type: cell-based
# Details: for % Inhibition of Migration (neutrophil chemotaxis): 0.5% zymosan-activated human serum
# Experimental: The materials and methods for ascertaining the chemotactic inhibitory properties of peptides are generally known in the art, and the preferred procedure is described by Capsoni, et al., 1989, J. of Immunol. Meth., 120:125. Generally, chemotaxis is determined by positioning the leukocytes and a chemotactic substance on opposite sides of a membrane in appropriate culture media. The preferred apparatus for doing a chemotaxis assay is produced by Costar Corporation, Cambridge, Mass., and is termed the trans-well cell culture apparatus. […] If a substance is being tested for inhibitory activity this can be achieved by combining it with the leukocytes or the chemotactic substance.
# The procedure of Capsoni, et al., above, was followed with the following modifications. Leukocytes may be isolated and labelled with ^111 Indium as described for the adhesion assay, above. The cells are resuspended after labelling in an appropriate cell culture medium at about 5×10^6 cells/ml. Next, a desired amount of the cell suspension is mixed with a predetermined amount of the peptide(s) to be tested for inhibitory activity, and the mixture added to an appropriate filter device. Three μm-pore membranes are situated in the wells of a 24 trans-well tissue culture plate. The cell/inhibitory peptide mixture is incubated for a short time at 37° C. to acclimate the cells to the membrane surface, and to provide sufficient time for them to settle onto the membrane surface. Next, inserts are set in wells containing cell culture media. The media contains zymosan-activated human serum at about 0.5%. Zymosan activation generates complement-derived chemotactic factors which attract the leukocytes through the pores of the membrane. This media was also prewarmed for an appropriate time prior to addition to the cell culture wells. After a 30 minute incubation period at 37° C., the number of leukocytes that have migrated through the membrane filter, in the presence or absence of CD18 peptides, is readily determined by counting the amount of ^111 Indium present in the media. This may be facilitated by adding an appropriate detergent at an appropriate concentration to the media in the wells prior to removing an aliquot for counting. In this way, the inhibitory activities of the peptide being tested could be determined.
# Many of the materials and methods used to test the inhibitory activity of the CD18 peptides on the chemotactic response of the polymorphonuclear leukocytes are similar or identical to those used to perform the adhesion assays described in Example 1. Polymorphonuclear leukocytes were isolated and labelled with ^111 Indium as described before, and the cells were suspended in RPMI 1640 culture medium at a concentration of 5×10^6 /ml. Next, 75 μl of the cell suspension and 25 μl of media containing a desired concentration of a CD18 peptide were added to trans-well inserts, and the mixture was incubated at 37° C. for 10 minutes.
# To the bottom wells of the 24-well plate 0.6 ml of media containing 0.5% zymosan-activated human serum was added. This solution was also warmed to 37° C. for 10 minutes prior to use.
# Next, the assay was conducted by incubating the trans-well inserts containing the cell suspension with the desired CD18 peptide in the 24-well plates at 37° C. for 30 minutes. Subsequently, the inserts were removed, and 60 μl of a 10% sodium dodecyl sulphate solution was added to the wells of the 24-well plate. The plates were incubated with gentle shaking at room temperature for 15 minutes, and 110 μl aliquots were removed and the amount of ^111 Indium determined using a gamma-counter.
sequence,measurement,setting,value
"IGWRNVTRLLVFATDDGFHFAGDGKLGAI [Peptide 4-29, NH2 --Ile--Gly--Trp--Arg--Asn--Val--Thr--Arg--Leu--Leu--Val--Phe--Ala--Thr--Asp--Asp--Gly--Phe--His--Phe--Ala--Gly--Asp--Gly--Lys--Leu--Gly--Ala--Ile--COOH]",concentration of peak activity in chemotaxis inhibition,"6 donors, 10^-4 -10^-7",10^-5 M
same,inhibition of chemotaxis migration (in words),10^-4 -10^-5 M,marked inhibition
same,% Inhibition of Migration (neutrophil chemotaxis),"10^-4 M, donor 140",83%
same,percent inhibition (-) or enhancement of polymorphonuclear leukocyte migration,"10^-4 M, donor 195",-93%
same,% Inhibition of Migration (neutrophil chemotaxis),"10^-4 M, donor 195",76%
same,% Inhibition of Migration (neutrophil chemotaxis),"10^-4 M, donor 279",74%
same,% Inhibition of Migration (neutrophil chemotaxis),"10^-4 M, donor 363",76%
same,percent inhibition (-) or enhancement of polymorphonuclear leukocyte migration,"10^-4 M, donor 499",-87%
same,percent inhibition (-) or enhancement of polymorphonuclear leukocyte migration,"10^-4 M, donor 591",-74%
same,percent inhibition (-) or enhancement of polymorphonuclear leukocyte migration,"10^-4 M, donor 593",-88%
same,% Inhibition of Migration (neutrophil chemotaxis),"10^-5 M, donor 140",69%
same,% Inhibition of Migration (neutrophil chemotaxis),"10^-5 M, donor 169",75%
same,percent inhibition (-) or enhancement of polymorphonuclear leukocyte migration,"10^-5 M, donor 195",-93%
same,% Inhibition of Migration (neutrophil chemotaxis),"10^-5 M, donor 195",87%
same,% Inhibition of Migration (neutrophil chemotaxis),"10^-5 M, donor 279",49%
same,% Inhibition of Migration (neutrophil chemotaxis),"10^-5 M, donor 359",74%
same,% Inhibition of Migration (neutrophil chemotaxis),"10^-5 M, donor 363",79%
same,percent inhibition (-) or enhancement of polymorphonuclear leukocyte migration,"10^-5 M, donor 499",-79%
same,percent inhibition (-) or enhancement of polymorphonuclear leukocyte migration,"10^-5 M, donor 591",-88%
same,percent inhibition (-) or enhancement of polymorphonuclear leukocyte migration,"10^-5 M, donor 593",-88%
same,% Inhibition of Migration (neutrophil chemotaxis),"10^-6 M, donor 140",2%
same,percent inhibition (-) or enhancement of polymorphonuclear leukocyte migration,"10^-6 M, donor 195",11%
same,% Inhibition of Migration (neutrophil chemotaxis),"10^-6 M, donor 195",34%
same,% Inhibition of Migration (neutrophil chemotaxis),"10^-6 M, donor 279",17%
same,% Inhibition of Migration (neutrophil chemotaxis),"10^-6 M, donor 363",34%
same,percent inhibition (-) or enhancement of polymorphonuclear leukocyte migration,"10^-6 M, donor 499",0%
same,percent inhibition (-) or enhancement of polymorphonuclear leukocyte migration,"10^-6 M, donor 591",0%
same,percent inhibition (-) or enhancement of polymorphonuclear leukocyte migration,"10^-6 M, donor 593",4%
same,% Inhibition of Migration (neutrophil chemotaxis),"10^-7 M, donor 140",0%
same,% Inhibition of Migration (neutrophil chemotaxis),"10^-7 M, donor 279",0%
same,inhibitory activity on chemotaxis (in words),PMNs from 6 donors,significant activity being observed for all donors
